Assay results as given in patent publication US7173129B2, “Sulfonamide-substituted chalcone derivatives and their use to treat diseases” (Athero Genics, Inc., priority 2003, dated 2007).
Structures can show the parent of a compound that is named as a salt.

Legend:
VCAM-1 = assay: In Vitro VCAM-1 Assay (TNF-α stimulated endothelial cells, cell-surface ELISA); format: cell-based; details: primary human aortic (HAEC) or pulmonary (HPAEC) endothelial cells, TNF-α 1 ng/ml, approximately 16 hours, ELISA OD 450 nm
Procedure: Cell Culture and compound dosing: Cultured primary human aortic (HAEC) or pulmonary (HPAEC) endothelial cells were obtained from Clonetics, Inc., and were used below passage 9. Cells were seeded in 96 well plates such that they would reach 90–95% confluency by the following day. On the following day the cells were stimulated with TNF-α (1 ng/ml) in the presence or absence of compounds dissolved in DMSO such that the final concentration of DMSO is 0.25% or less. To establish a dose curve for each compound, four concentrations in 2- to 5-fold increments were used. Cells were exposed to TNF-α and compounds for approximately 16 hours. The next day the cells were examined under microscope to score for visual signs of toxicity or cell stress.
Following 16 hr exposure to TNF-α and compound the media was discarded and the cells were washed once with Hanks Balanced Salt Solution (HBSS)/Phosphate buffered saline (PBS) (1:1). Primary antibodies against VCAM-1 (0.25 μg/ml in HBSS/PBS+5% FBS) were added and incubated for 30–60 minutes at 37° C. Cells were washed with HBSS/PBS three times, and secondary antibody Horse Radish Peroxidase (HRP)-conjugated goat anti-mouse IgG (1:500 in HBSS/PBS+5% FBS) were added and incubated for 30 minutes at 37° C. Cells were washed with HBSS/PBS four time and TMB substrate were added and incubated at room temperature in the dark until there was adequate development of blue color. The length of time of incubation was typically 5–15 minutes. 2N sulfuric acid was added to stop the color development and the data was collected by reading the absorbance on a BioRad ELISA plate reader at OD 450 nm. The results are expressed as IC50 values (the concentration (micromolar) of compound required to inhibit 50% of the maximal response of the control sample stimulated by TNF-α only).

[1] = Homo sapiens, Endothelial cell, 16 h

IC50 (VCAM-1; [1]) [µM]	melting point	IC50 (VCAM-1; sodium salt) [µM]	Structure (SMILES)
< 5	220 to 221 °C		COc1cc(OC)c(-c2cccs2)cc1/C=C/C(=O)c1ccc(S(=O)(=O)Nc2nccs2)cc1 [Example 8, 4-[3E-(2,4-Dimethoxy-5-thien-2-ylphenyl)acryloyl]-N-thiazol-2-ylbenzenesulfonamide]
> 10	189 to 190 °C		COc1cc(OC)c(-c2cc3ccccc3[nH]2)cc1/C=C/C(=O)c1ccc(S(=O)(=O)NCC(=O)O)cc1 [Example 51, (4-{3E-[5-(1H-Indol-2-yl)-2,4-dimethoxyphenyl]acryloyl}benzenesulfonylamino)acetic acid]
< 5	160 to 162 °C		COc1cc(OC)c(-c2cccs2)cc1/C=C/C(=O)c1ccc(S(=O)(=O)NCCCn2ccnc2)cc1 [Example 23, 4-[3E-(2,4-Dimethoxy-5-thien-2-ylphenyl)acryloyl]-N-(3-imidazol-1-ylpropyl)benzenesulfonamide]
< 10	228 to 229 °C		COc1cc(OC)c(-c2cccs2)cc1/C=C/C(=O)c1ccc(S(=O)(=O)Nc2ccc(Cl)cn2)cc1 [Example 10, N-(5—Chloropyridin-2-yl)-4-[3E-(2,4-dimethoxy-5-thien-2-ylphenyl)acryloyl]benzenesulfonamide]
> 10	165 to 166 °C		COc1cc(OCC(CO)CO)c(/C=C/C(=O)c2ccc(S(=O)(=O)Nc3cc(C)on3)cc2)cc1-c1cccs1 [Example 13, 4-{3E-[2-(3-Hydroxy-2-hydroxymethylpropoxy)-4-methoxy-5-thien-2-ylphenyl]acryloyl}-N-(5-methylisoxazol-3-yl)benzenesulfonamide]
> 10	197 to 200 °C		COc1cc(OC)c(-c2cc3ccccc3[nH]2)cc1/C=C/C(=O)c1ccc(S(=O)(=O)NCCCn2ccnc2)cc1 [Example 50, N-(3-Imidazol-1-yl-propyl)-4-{3E-[5-(1H-indol-2-yl)-2,4-dimethoxy-phenyl]acryloyl}benzenesulfonamide]
< 10	120 to 122 °C		COc1cc(OC)c(-c2cc3ccccc3n2C)cc1/C=C/C(=O)c1ccc(S(=O)(=O)N(C)C)cc1 [Example 31, 4-{3E-[2,4-Dimethoxy-5-(1-methyl-1H-indol-2-yl)phenyl]acryloyl}-N,N-dimethylbenzenesulfonamide]
< 5	178 to 182 °C		COc1cc(OCCCO)c(/C=C/C(=O)c2ccc(S(=O)(=O)Nc3cc(C)on3)cc2)cc1-c1cccs1 [Example 39, 4-{3E-[2-(3-Hydroxy-propoxy)-4-methoxy-5-thien-2-ylphenyl]acryloyl}-N-(5-methylisoxazol-3-yl)benzenesulfonamide]
< 5	142 to 145 °C		COc1cc(OC)c(-c2cccs2)cc1/C=C/C(=O)c1ccc(S(=O)(=O)Nc2cc[nH]n2)cc1 [Example 6, 4-[3E-(2,4-Dimethoxy-5-thien-2-ylphenyl)acryloyl]-N-(1H-pyrazol-3-yl)benzenesulfonamide]
< 5	223 to 225 °C		CCC(=O)NS(=O)(=O)c1ccc(C(=O)/C=C/c2cc(-c3cc4ccccc4[nH]3)c(OC)cc2OC)cc1 [Example 45, 4-{3E-[5-(1H-Indol-2-yl)-2,4-dimethoxyphenyl]acryloyl}-N-propionyl-benzenesulfonamide]
< 5	215 °C (dec.)		COc1cc(OC)c(-c2cccs2)cc1/C=C/C(=O)c1ccc(S(=O)(=O)Nc2ncccn2)cc1 [Example 3, 4-[3E-(2,4-Dimethoxy-5-thien-2-ylphenyl)acryloyl]-N-pyrimidin-2-ylbenzenesulfonamide]
< 5	243 to 245 °C (dec.)		COc1cc(OC)c(-c2cc3ccccc3[nH]2)cc1/C=C/C(=O)c1ccc(S(=O)(=O)NC(=O)C(C)C)cc1 [Example 35, 4-{3E-[5-(1H-Indol-2-yl)-2,4-dimethoxyphenyl]acryloyl}-N-isobutyrylbenzenesulfonamide]
	240 to 250 °C	< 5	COc1cc(OC)c(-c2cc3ccccc3[nH]2)cc1/C=C/C(=O)c1ccc(S(=O)(=O)[N-]C(C)=O)cc1.[Na+] [Example 43, N-Acetyl-4-{3E-[5-(1H-indol-2-yl)-2,4-dimethoxyphenyl]acryloyl}benzenesulfonamide sodium salt]
> 10	64 to 68 °C		COc1cc(OC)c(N2CCCC2)cc1/C=C/C(=O)c1ccc(S(=O)(=O)NCCCN2CCN(C)CC2)cc1 [Example 55, 4-[3E-(2,4-Dimethoxy-5-pyrrolidin-1-ylphenyl)acryloyl]-N-[3-(4-methyl-piperazin-1-yl)propyl]benzenesulfonamide]
> 10	155 to 158 °C		COc1cc(OC)c(N2CCCC2)cc1/C=C/C(=O)c1ccc(S(=O)(=O)NCC(=O)O)cc1 [Example 56, {4-[3E-(2,4-Dimethoxy-5-pyrrolidin-1-ylphenyl)acryloyl]benzenesulfonylamino}acetic acid]
> 10	218 to 220 °C		COc1cc(OC)c(-c2cc3ccccc3[nH]2)cc1/C=C/C(=O)c1ccc(S(=O)(=O)NC(C)=O)cc1 [Example 42, N-Acetyl-4-{3E-[5-(1H-indol-2-yl)-2,4-dimethoxyphenyl]acryloyl}benzenesulfonamide]
< 5	164 to 165 °C		COc1cc(OC)c(N2CCCC2)cc1/C=C/C(=O)c1ccc(S(=O)(=O)Nc2cc(C)on2)cc1 [Example 38, 4-[3E-(2,4-Dimethoxy-5-pyrrolidin-1-yl-phenyl)acryloyl]-N-(5-methyl-isoxazol-3-yl)benzenesulfonamide]
< 5	198 to 199 °C		COc1cc(OC)c(-c2cccs2)cc1/C=C/C(=O)c1ccc(S(=O)(=O)Nc2ccon2)cc1 [Example 7, 4-[3E-(2,4-Dimethoxy-5-thien-2-ylphenyl)acryloyl]-N-isoxazol-3-ylbenzenesulfonamide]
< 5	124 to 128 °C		COc1cc(OC)c(N2CCCC2)cc1/C=C/C(=O)c1ccc(S(=O)(=O)Nc2ccccn2)cc1 [Example 52, 4-[3E-(2,4-Dimethoxy-5-pyrrolidin-1-yl-phenyl)-acryloyl]-N-pyridin-2-yl-benzenesulfonamide]
	> 250 °C		CCC(=O)[N-]S(=O)(=O)c1ccc(C(=O)/C=C/c2cc(-c3cc4ccccc4[nH]3)c(OC)cc2OC)cc1.[Na+] [Example 46, 4-{3E-[5-(1H-Indol-2-yl)-2,4-dimethoxyphenyl]acryloyl}-N-propionylbenzenesulfonamide sodium salt]
	249 to 251 °C (dec.)		COc1cc(OC)c(-c2cc3ccccc3[nH]2)cc1/C=C/C(=O)c1ccc(S(=O)(=O)[N-]C(=O)C(C)C)cc1.[Na+] [Example 36, 4-{3E-[5-(1H-Indol-2-yl)-2,4-dimethoxyphenyl]acryloyl}-N-isobutyrylbenzenesulfonamide sodium salt]
	160 to 170 °C		COc1cc(OC)c(-c2cccs2)cc1/C=C/C(=O)c1ccc(S(=O)(=O)NCC(F)(F)F)cc1 (as salt: sodium) [Example 25, 4-[3E-(2,4-Dimethoxy-5-thien-2-ylphenyl)acryloyl]-N-(2,2,2-trifluoroethyl)benzenesulfonamide sodium salt]
